In patent US20240180877A1, “ANTI-ANXIETY COMPOSITION” (SUNTORY HOLDINGS LIMITED, priority 2021, published 2024):

Tests used:
[1] = target: Recombinant human α7 nicotinic acetylcholine receptors (nAChR (α7)) (Homo sapiens, UniProt P36544); type: binding; settings: FIG. 3; 100 μM or 1000 μM; 0.4 nM [125I]-α-bungarotoxin; SH-SY5Y cell membranes
[2] = target: T1, Recombinant human α3/β4 nicotinic acetylcholine receptors (nAChR (α3β4)) (Homo sapiens, UniProt P30926+P32297); experiment: Inhibition of [125I]epibatidine binding to nAChR (α3β4) cell membranes
T1 construct: host or cells: CHO-K1
T1 sequence (P30926 22-498): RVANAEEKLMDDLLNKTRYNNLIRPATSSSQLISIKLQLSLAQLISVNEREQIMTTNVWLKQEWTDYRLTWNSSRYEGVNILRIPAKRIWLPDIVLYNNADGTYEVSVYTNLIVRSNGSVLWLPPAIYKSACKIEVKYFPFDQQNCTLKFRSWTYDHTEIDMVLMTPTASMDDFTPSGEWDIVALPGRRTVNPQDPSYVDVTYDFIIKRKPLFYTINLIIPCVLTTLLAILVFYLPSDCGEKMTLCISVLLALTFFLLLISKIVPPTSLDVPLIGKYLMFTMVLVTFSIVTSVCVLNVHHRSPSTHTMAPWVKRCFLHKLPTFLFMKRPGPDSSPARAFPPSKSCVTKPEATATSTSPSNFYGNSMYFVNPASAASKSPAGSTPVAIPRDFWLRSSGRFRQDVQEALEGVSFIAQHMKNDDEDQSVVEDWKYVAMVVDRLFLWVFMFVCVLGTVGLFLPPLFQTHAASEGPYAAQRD
T1 sequence (P32297 32-505): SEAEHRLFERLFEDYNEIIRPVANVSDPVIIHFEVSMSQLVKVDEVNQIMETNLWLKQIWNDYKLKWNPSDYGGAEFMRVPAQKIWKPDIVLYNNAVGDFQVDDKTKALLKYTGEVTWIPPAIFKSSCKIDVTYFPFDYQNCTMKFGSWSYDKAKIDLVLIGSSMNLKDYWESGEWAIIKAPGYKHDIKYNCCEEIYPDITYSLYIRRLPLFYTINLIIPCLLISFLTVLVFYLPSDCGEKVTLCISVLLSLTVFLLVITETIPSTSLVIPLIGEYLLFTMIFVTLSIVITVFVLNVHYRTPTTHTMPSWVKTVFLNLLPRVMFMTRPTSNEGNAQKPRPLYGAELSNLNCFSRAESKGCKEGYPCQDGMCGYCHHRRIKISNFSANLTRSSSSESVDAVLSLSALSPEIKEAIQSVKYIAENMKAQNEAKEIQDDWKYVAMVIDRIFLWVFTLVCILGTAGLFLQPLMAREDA
Method: (§1) In order to evaluate molecular targets for reducing glutamate signaling by L-ergothioneine, nicotinic acetylcholine receptors associated with glutamate signaling were subjected to in vitro assay. The in vitro assay was commissioned to Eurofins Panlabs. The test was performed by the following method.
Recombinant human α3/β4 nicotinic acetylcholine receptors (nAChR (α3β4)) expressed in Chinese hamster ovary-derived CHO-K1 cells were used. Cell membranes (0.6 μg) of the cells expressing nAChR (α3β4) were incubated in Tris-HCl buffer (pH 7.4) with 0.05 nM [125I]epibatidine and L-ergothioneine (L-ergothioneine concentration: 30 μM, 100 μM, 300 μM, 1000 μM, or 3000 μM) at 25° C. for 60 minutes. Non-specific binding was estimated in the presence of 10 μM epibatidine. The cell membranes were filtered through a filter and washed, and the activity of L-ergothioneine to inhibit binding of substrates was evaluated using radioactivity of [125I]epibatidine as an index.

[3] = target: T2, Recombinant human α4/β2 nicotinic acetylcholine receptors (nAChR (α4β2)) (Homo sapiens, UniProt P17787+P43681); experiment: Inhibition of [3H]cytisine binding to nAChR (α4β2) cell membranes; settings: FIG. 3; 100 μM or 1000 μM; 0.6 nM [3H]cytisine; SH-SY5Y cell membranes
T2 construct: host or cells: SH-SY5Y
T2 sequence (P43681 29-627 limits assumed): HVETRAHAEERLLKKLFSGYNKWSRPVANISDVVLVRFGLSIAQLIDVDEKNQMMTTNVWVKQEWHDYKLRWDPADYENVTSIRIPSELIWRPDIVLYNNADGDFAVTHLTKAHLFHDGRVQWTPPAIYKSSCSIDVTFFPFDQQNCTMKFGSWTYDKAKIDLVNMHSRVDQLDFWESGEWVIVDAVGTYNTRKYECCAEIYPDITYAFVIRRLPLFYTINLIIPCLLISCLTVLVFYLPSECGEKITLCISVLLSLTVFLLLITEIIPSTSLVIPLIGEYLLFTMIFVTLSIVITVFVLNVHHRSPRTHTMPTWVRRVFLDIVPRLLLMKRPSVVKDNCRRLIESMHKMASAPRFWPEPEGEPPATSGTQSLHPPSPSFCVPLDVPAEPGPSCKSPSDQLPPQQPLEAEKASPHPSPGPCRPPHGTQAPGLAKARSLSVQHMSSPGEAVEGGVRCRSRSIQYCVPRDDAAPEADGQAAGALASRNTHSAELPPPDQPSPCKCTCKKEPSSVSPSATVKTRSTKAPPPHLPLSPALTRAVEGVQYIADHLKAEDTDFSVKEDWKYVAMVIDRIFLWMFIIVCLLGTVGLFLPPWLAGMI
T2 sequence (P17787 26-502): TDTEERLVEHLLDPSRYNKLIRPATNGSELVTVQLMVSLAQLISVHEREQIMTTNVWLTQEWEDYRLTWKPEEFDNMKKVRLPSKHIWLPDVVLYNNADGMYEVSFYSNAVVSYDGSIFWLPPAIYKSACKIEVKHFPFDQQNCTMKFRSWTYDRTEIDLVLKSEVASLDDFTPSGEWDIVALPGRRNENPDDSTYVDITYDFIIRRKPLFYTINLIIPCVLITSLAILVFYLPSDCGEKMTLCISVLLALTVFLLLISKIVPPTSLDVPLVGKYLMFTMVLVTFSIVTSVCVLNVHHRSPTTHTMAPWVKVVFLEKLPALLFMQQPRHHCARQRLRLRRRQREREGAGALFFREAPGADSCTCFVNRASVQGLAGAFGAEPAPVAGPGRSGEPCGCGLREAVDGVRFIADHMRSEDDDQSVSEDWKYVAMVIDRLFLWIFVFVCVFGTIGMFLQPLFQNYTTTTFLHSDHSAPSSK
Method: as §1
Recombinant human α4/β2 nicotinic acetylcholine receptors (nAChR (α4β2)) expressed in human neuroblastoma-derived SH-SY5Y cells were used. Cell membranes (30 μg) of the cells expressing nAChR (α4β2) were incubated in Tris-HCl buffer (pH 7.4) with 0.6 nM [3H]cytisine and L-ergothioneine (L-ergothioneine concentration: 100 μM or 1000 μM) at 4° C. for 120 minutes. Non-specific binding was estimated in the presence of 10 μM nicotine bitartrate. The cell membranes were filtered through a filter and washed, and the activity of L-ergothioneine to inhibit binding of substrates was evaluated using radioactivity of [3H]cytisine as an index.

Recombinant human α7 nicotinic acetylcholine receptors (nAChR (α7)), sequence (P36544 23-502): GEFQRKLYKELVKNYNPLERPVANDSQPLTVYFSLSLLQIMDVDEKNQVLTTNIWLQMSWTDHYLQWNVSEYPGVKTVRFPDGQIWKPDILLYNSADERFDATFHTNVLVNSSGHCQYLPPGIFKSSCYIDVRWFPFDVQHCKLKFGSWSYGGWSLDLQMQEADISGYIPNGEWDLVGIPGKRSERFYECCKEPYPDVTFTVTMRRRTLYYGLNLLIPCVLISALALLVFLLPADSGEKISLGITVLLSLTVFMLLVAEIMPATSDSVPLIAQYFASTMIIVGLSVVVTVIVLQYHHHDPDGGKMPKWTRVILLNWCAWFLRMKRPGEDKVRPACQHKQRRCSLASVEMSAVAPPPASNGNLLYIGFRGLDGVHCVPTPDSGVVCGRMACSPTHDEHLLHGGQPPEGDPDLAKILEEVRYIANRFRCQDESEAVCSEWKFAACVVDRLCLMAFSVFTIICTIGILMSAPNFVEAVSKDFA

C[N+](C)(C)[C@@H](Cc1c[nH]c(=S)[nH]1)C(=O)[O-] [L-ergothioneine]
activity to inhibit binding of substrates to α7 receptors [1]: showed the activity
activity to inhibit binding of substrates to α3β4 receptors ([2]; FIG. 3, [125I]epibatidine): strong activity
IC50 ([2]; five concentrations 30-3000 μM, 0.05 nM [125I]epibatidine, CHO-K1 cell membranes, 25° C., 60 minutes, read-out: 50% inhibitory concentration): 1110 µM
activity to inhibit binding of substrates to α4β2 receptors [3]: showed the activity
